How the values were obtained:
Type in all cases: biochemical
[1] = molecular target: T1, AChE (acetylcholinesterase) (Electrophorus electricus, UniProt O42275); assay: Ellman colorimetric assay with electric eel AChE, % inhibition at […]; conditions: 100 µM
[2] = molecular target: T1, AChE (acetylcholinesterase); assay: Ellman colorimetric assay with electric eel AChE
[3] = molecular target: T2, BuChE (butyrylcholinesterase) (Equus caballus, UniProt P81908); assay: Ellman colorimetric assay with equine serum BuChE, % inhibition at […]
T2 construct: gene BCHE
T2 sequence (P81908 whole entry): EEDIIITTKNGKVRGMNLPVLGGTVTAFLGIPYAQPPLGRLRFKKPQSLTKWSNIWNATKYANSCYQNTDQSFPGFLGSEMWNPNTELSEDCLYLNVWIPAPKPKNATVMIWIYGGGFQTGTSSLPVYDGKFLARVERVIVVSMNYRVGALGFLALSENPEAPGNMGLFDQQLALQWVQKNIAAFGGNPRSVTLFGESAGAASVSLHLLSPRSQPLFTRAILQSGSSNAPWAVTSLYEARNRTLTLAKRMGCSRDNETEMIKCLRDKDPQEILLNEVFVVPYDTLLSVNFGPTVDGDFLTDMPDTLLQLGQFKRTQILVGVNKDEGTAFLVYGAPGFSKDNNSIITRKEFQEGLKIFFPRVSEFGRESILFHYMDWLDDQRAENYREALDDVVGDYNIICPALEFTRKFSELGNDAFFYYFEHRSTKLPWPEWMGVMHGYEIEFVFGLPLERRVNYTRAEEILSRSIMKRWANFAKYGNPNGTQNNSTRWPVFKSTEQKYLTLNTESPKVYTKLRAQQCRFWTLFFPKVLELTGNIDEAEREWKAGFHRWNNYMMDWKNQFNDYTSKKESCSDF

T1 sequence (O42275 24-633): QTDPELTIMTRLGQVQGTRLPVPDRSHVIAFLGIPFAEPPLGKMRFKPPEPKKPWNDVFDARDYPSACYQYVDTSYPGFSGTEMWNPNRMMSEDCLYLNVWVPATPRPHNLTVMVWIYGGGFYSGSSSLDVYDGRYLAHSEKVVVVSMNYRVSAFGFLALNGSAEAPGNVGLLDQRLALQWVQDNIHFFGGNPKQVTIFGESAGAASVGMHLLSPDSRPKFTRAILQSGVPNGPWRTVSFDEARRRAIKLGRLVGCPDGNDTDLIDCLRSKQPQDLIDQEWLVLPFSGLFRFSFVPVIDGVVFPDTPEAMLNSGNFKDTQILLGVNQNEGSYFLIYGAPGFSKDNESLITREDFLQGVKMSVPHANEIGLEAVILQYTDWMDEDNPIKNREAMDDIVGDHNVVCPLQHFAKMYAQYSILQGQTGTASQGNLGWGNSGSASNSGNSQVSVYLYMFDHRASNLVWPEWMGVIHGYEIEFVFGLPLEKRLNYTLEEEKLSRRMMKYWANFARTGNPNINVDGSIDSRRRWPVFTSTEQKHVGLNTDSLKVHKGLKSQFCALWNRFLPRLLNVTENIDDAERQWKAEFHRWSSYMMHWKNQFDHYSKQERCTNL

Compound	% Inhibition of AChE [1]	IC50 [2] [µM]	inhibition at 100 µM [3] [%]
6-deoxyclitoriacetal [compound 7]	37.9 ± 5.0		
O=C(/C=C/c1ccc(O)cc1)NCCCCN(CCCNC(=O)/C=C/c1ccc(O)cc1)C(=O)/C=C/c1ccc(O)cc1 [compound 5, N^1,N^5,N^10-(E)-tri-p-coumaroylspermidine]		102 ± 8.1	43.8 ± 1.9
COC1=CC(=O)[C@]2(C=C1OC)OC[C@H]1Oc3c(ccc4c3C=CC(C)(C)O4)C(=O)[C@H]12 [compound 8, amorphispironone]			37.6 ± 2.7
